Experimental data taken from ChEMBL document CHEMBL1134189, “Synthesis and monoamine transporter affinity of 3beta-(4-(2-pyrrolyl)phenyl)-8-azabicycl” (Bioorg Med Chem Lett, 2001).

What was measured:
[1] = molecular target: Sodium-dependent dopamine transporter (Rattus norvegicus, UniProt P23977); assay: Displacement of [125I]RTI-55 from Dopamine transporter of rat striatal membrane
[2] = molecular target: Sodium-dependent serotonin transporter (Rattus norvegicus, UniProt P31652); assay: Displacement of [3H]paroxetine from Serotonin transporter of rat frontal cortex membrane; format: tissue-based
Chain of Sodium-dependent serotonin transporter (P31652 whole entry): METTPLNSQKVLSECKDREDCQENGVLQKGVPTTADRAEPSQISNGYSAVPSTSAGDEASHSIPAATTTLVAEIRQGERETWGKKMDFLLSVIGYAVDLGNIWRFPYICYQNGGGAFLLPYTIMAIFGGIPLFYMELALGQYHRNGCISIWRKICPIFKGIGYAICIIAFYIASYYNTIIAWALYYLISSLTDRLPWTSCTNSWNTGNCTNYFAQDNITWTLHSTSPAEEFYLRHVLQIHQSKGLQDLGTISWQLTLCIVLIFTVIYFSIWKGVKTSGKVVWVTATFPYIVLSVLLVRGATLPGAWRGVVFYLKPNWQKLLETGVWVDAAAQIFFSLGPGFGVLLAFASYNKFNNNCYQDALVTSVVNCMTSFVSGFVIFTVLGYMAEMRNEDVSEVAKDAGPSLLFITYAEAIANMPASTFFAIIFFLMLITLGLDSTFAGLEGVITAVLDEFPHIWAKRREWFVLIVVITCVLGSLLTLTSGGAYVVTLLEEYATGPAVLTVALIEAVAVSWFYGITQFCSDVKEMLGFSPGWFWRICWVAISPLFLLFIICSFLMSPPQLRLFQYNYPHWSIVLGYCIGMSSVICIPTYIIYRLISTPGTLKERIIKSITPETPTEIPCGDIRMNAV

[3] = molecular target: Monoamine transporters; serotonin & dopamine (Rattus norvegicus) (UniProt P31652+P23977); assay: Relative affinity for serotonin and Dopamine transporters; format: protein assay
Chain of Monoamine transporters; serotonin & dopamine (Rattus norvegicus) (P23977 whole entry, looked up): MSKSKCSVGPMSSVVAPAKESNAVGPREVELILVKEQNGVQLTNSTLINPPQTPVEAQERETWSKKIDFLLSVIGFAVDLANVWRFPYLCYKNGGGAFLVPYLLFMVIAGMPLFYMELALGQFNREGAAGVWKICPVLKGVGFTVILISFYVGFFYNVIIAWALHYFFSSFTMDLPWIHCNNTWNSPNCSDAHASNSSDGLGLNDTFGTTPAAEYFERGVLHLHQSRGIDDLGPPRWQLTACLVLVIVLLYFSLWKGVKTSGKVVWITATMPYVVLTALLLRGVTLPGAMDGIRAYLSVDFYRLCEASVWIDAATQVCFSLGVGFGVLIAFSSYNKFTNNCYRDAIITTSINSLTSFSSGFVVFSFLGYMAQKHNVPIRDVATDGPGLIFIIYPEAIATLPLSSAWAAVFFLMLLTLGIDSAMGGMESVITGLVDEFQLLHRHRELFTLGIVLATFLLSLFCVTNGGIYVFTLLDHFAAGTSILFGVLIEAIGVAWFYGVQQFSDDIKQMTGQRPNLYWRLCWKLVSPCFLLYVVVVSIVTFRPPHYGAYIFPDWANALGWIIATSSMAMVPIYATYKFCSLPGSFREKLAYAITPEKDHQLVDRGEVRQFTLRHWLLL
Chain of Monoamine transporters; serotonin & dopamine (Rattus norvegicus) (P31652 whole entry, looked up): as the sequence (P31652 whole entry) above

Chain of Sodium-dependent dopamine transporter (P23977 whole entry): as the sequence (P23977 whole entry, looked up) above

`CCOC(=O)C1C(c2ccc3c(ccn3CC)c2)CC2CCC1N2C` (centres undefined) gave an IC50 [1] of 1.2 nM, a Ki [2] of 5.54 nM and a Ratio [3] of 0.22.

With `CCOC(=O)C1C2CCC(CC1c1ccc(-c3cccn3CC)cc1)N2` (centres undefined) the IC50 [1] was > 1000 nM, the Ki [2] was 15.7 nM and the Ratio [3] was > 63.7.

`CCOC(=O)C1C(c2ccc(-c3cccn3C)cc2)CC2CCC1N2C` (centres undefined) showed an IC50 [1] of 703 nM, a Ki [2] of 25.6 nM and a Ratio [3] of 27.4.

`CCOC(=O)C1C2CCC(CC1c1ccc(-c3cccn3C)cc1)N2` (centres undefined) showed an IC50 [1] of 614 nM, a Ki [2] of 1.05 nM and a Ratio [3] of 585.

`CCOC(=O)C1C(c2ccc3c(ccn3C)c2)CC2CCC1N2C` (centres undefined) gave an IC50 [1] of 0.75 nM, a Ki [2] of 2.84 nM and a Ratio [3] of 0.26.

`CCOC(=O)C1C2CCC(CC1c1ccc(-c3ccc(-c4ccccc4)n3C)cc1)N2` (centres undefined) was tested, and the IC50 [1] was > 1000 nM, the Ki [2] was 112 nM and the Ratio [3] was > 8.93.

`CCOC(=O)C1C2CCC(CC1c1ccc3c(ccn3C)c1)N2` (centres undefined) showed an IC50 [1] of 2.73 nM, a Ki [2] of 1.74 nM and a Ratio [3] of 1.57.

Compound `CCOC(=O)C1C2CCC(CC1c1ccc3c(ccn3CC)c1)N2` (centres undefined) has an IC50 [1] of 2.37 nM, a Ki [2] of 3.04 nM and a Ratio [3] of 0.78.

With `CCOC(=O)C1C2CCC(CC1c1ccc(-c3ccc(C)n3C)cc1)N2` (centres undefined) the IC50 [1] was 825 nM, the Ki [2] was 49.1 nM and the Ratio [3] was 16.8.

In the case of `CCOC(=O)C1C(c2ccc(-c3c(C)ccn3C)cc2)CC2CCC1N2C` (centres undefined), the IC50 [1] is reported as > 1000 nM and the Ki [2] is reported as > 1000 nM.

For `CCOC(=O)C1C(c2ccc(-c3cccn3Cc3ccccc3)cc2)CC2CCC1N2C` (centres undefined), the IC50 [1] was 58 nM, the Ki [2] was 59.2 nM and the Ratio [3] was 0.98.

`CCOC(=O)C1C2CCC(CC1c1ccc(-c3c(C)ccn3C)cc1)N2` (centres undefined) showed a Ki [2] of 48.8 nM.

In the case of `CCOC(=O)C1C(c2ccc(-c3cccn3CC)cc2)CC2CCC1N2C` (centres undefined), the IC50 [1] is reported as > 1000 nM, the Ki [2] is reported as 337 nM and the Ratio [3] is reported as > 2.97.

With `CCOC(=O)C1C2CCC(CC1c1ccc(-c3cccn3Cc3ccccc3)cc1)N2` (centres undefined) the IC50 [1] was 32.2 nM, the Ki [2] was 6.36 nM and the Ratio [3] was 5.06.
